# Data taken from ChEMBL document CHEMBL1157539, “Thousands of chemical starting points for antimalarial lead identification” (Nature, 2010).
# Test system: Plasmodium falciparum
# Assay: GSK_TCMDC: Inhibition of Plasmodium falciparum 3D7 in whole erythrocytes, using parasite LDH activity as an index of growth.
# Assay type: functional, organism-based
# Conditions: Plasmodium falciparum, 3D7
row,SMILES,XC50 [nM]
1,Nc1nc(N)c2c(Sc3ccccc3)cccc2n1,645
2,CC1(C)CCCN(Cc2c(O)ccc3c(O)c(-c4nc5ccccc5s4)c(=N)oc23)C1,337
3,CCc1nc(N)nc(N)c1-c1ccccc1,1180
4,O=C(NCCCCCN1CCC(c2c[nH]c3ccccc23)CC1)Nc1ccc(Cl)c(Cl)c1,920
5,CCN(CC)CCN(Cc1ccc(-c2ccc(C(F)(F)F)cc2)cc1)C(=O)c1ccc(-c2ccc(C#N)cc2)cc1,1110
6,O=C(NCCN1CCCC1)N1CCCN(c2ncnc3cc(-c4ccc(Cl)cc4)sc23)CC1,918
7,Cc1cc(N[C@@H](Cc2ccccc2)C(=O)NCc2cccs2)nc(NCCOc2ccccc2)n1,1480
8,CCCN(CCC)C(=O)c1cc(-c2cccc(C)c2)nc2ccccc12,1060
9,Cc1ccc(C(NC(=O)c2ccccc2)c2ccc3cccnc3c2O)cc1 (stereo unspecified),961
10,COc1cccc(-c2ccc(C(=O)NCC3CCCN(Cc4cccc(C(F)(F)F)c4)C3)s2)c1 (stereo unspecified),1140
11,CC(C)Cc1ccc(N2CCN(CCCCNC(=O)c3ccc(NC(=O)c4cc(C(F)(F)F)cc(C(F)(F)F)c4)cc3)CC2)cc1,179
12,CC(C)(C)c1ccc(NC(=O)c2cccc(CN3CCN(Cc4cccc(O)c4)CC3)c2)cc1,1400
13,O=C(/C=C/c1ccc(Cl)c(Cl)c1)NCCCCCN1CCC(NC(=O)c2ccc(F)cc2F)CC1,759
14,CCCc1cc(C)ccc1OCCCON1C(NC(=O)OCC)=NC(NC(=O)OCC)=NC1(C)C,35.9
15,CCc1nc(N)nc(N)c1-c1ccc(F)c(F)c1,417
16,Cc1cc(O)c(-c2ccc(Oc3ccc(F)cc3)cc2)c(C)n1,972
17,COC(=O)c1ccc(C(=O)NCCCCN2CCC(c3ccc4c(c3OC)CCCC4)CC2)cc1-c1ccc(C(F)(F)F)cc1,1150
18,O=C(NCCc1ccccc1)N(Cc1ccccc1-c1ccc(CNCCc2ccccc2)cc1)C1CCN(Cc2ccccc2)CC1,716
19,CC1(C)NC(N)=NC(=N)N1OCCCOc1cccc(Cl)c1,3.2
20,O=C(/C=C/c1ccc(Cl)c(Cl)c1)NCCCCCN1CCC(NC(=O)Nc2cccc(Cl)c2F)CC1,378
21,CC(C)(C)c1ccc(OCCCON2C(N)=NC(N)=NC2(C)C)cc1,3.2
22,COc1cccc(Nc2c(C(N)=O)cnc3ccc(-c4ccc([S+](C)[O-])cc4)cc23)c1 (stereo unspecified),186
23,Cc1nn(C)cc1C(C)Nc1nncc(-c2ccc(C(F)(F)F)cc2)n1 (stereo unspecified),246
24,Oc1ccc2ccccc2c1CNC1CCCCCC1,933

row,SMILES,XC50 [nM]
1,O=C(NCCCCCCNCc1ccc(-c2ccccc2)cc1)Nc1ccc(Cl)c(Cl)c1,962
2,Cc1[nH]c2ccc(-c3ccc(N(C)C)cc3)cc2c(=O)c1Cl,720
3,CN(C)CCOc1cccc(-c2cnc(N)c(-c3nc4cc(S(C)(=O)=O)ccc4[nH]3)c2)c1,950
4,Cc1noc(C)c1-c1cccc(CNCc2cccc(-c3cccc(-c4nc5cccc(C)c5[nH]4)c3)c2)c1,370
5,CCOC(=O)Cn1ccc2c(NCc3ccccc3)nc(C)nc21,374
6,N=C(NCC1CC1c1ccccc1)c1cccc(C(=N)NCC2CC2c2ccccc2)n1 (stereo unspecified),1760
7,CN(C)CCCn1c(N)c(-c2nc3ccccc3[nH]2)c2nc(C#N)c(C#N)nc21,591
8,O=C(Nc1ccc2nc3n(c(=O)c2c1)CCCCC3)C(=O)N1CCC(Cc2ccccc2)CC1,757
9,CN1CCN(CCCNCc2cccc(Nc3nccc(Nc4ccc(Oc5ccccc5)cc4)n3)c2)CC1,765
10,O=C(/C=C/c1ccc(Cl)c(Cl)c1)NCCCCCN1CCC(NC(=O)Nc2ccc(OC(F)F)cc2)CC1,754
11,Nc1c2ccccc2nc2cc([N+](=O)[O-])ccc12,870
12,O=C(CCCCCCc1ccccc1)Nc1ccc2nc3c(c(NCc4ccccc4)c2c1)CCCC3,358
13,COc1ccc2nccc([C@@H](O)CN3CCC(NCc4cc5cccc(O)c5c(=O)[nH]4)CC3)c2c1,385
14,N#Cc1c(N)nc(SCC(=O)Nc2cc(C(F)(F)F)ccc2Cl)c(C#N)c1-c1cccs1,743
15,CC(C)COc1ccc(Cl)cc1Cc1ccc(-c2nc3cc(N4CCN(C)CC4)ccc3[nH]2)o1,945
16,CCCCCSc1cc(O)c(C(CNC)C(C)C)cc1OC (stereo unspecified),163
17,Oc1ccc2[nH]c(-c3cccs3)nc2c1CN1CCC(O)(c2ccccc2)CC1,782
18,CCOc1c(CNCCCNc2cc(=O)c3ccccc3[nH]2)cc(I)cc1C(C)(C)C,703
19,C#CCNCc1ccc(-c2ccc(-c3nc4cc(C(F)(F)F)ccc4[nH]3)s2)cc1,744
20,COc1cc(C(F)(F)F)nc2c(CNCCCNc3cc(=O)c4ccccc4[nH]3)scc12,1180
21,CN(c1ccc(NC(=O)Nc2cc(C(F)(F)F)ccc2F)cc1)c1ccnc(NCCN2CCCC2)n1,1150
22,NC1=NC(c2ccccc2)(c2ccccc2)C(=O)N1CCCCc1ccccc1,760
23,COc1ccc(CNCc2cccc(-c3ccc(-c4nc5cccc(C)c5[nH]4)cc3)c2)cc1,237
24,O=C(C=Cc1cn(-c2ccccc2)nc1-c1ccccc1)N1CCN(c2ccncc2)CC1,965

row,SMILES,XC50 [nM]
1,O=C(Nc1cccc(Oc2ccccc2)c1)N[C@H]1CCN(Cc2ccc(OCCCN3CCCCC3)cc2)C1,724
2,CC[C@H](C)CNC(=O)c1cncc(-c2cccc(CN3CCC(N4CCCC4)CC3)c2)c1,1170
3,CCOC(=O)c1ccc(CC(C)NCC(O)c2cccc(C(F)(F)F)c2)cc1 (stereo unspecified),216
4,O=C(NC(c1ccccc1)c1ccccc1)C(c1cc2ccccc2o1)N1CCN(C(c2ccccc2)c2ccccc2)CC1 (stereo unspecified),679
5,CC(C)c1cccc(C(NC(=O)[C@H]2Cc3ccccc3CN2C(=O)c2cccc(N3CCOCC3)c2)C2CCCC2)c1 (stereo partly specified),723
6,COc1ccc(C2(CNCC(O)c3cccc([N+](=O)[O-])c3)CCCC2)cc1OC (stereo unspecified),891
7,O=C(NC1CCC(CN2CCC(c3c[nH]c4ccccc34)CC2)CC1)C1(O)c2ccccc2-c2ccccc21 (stereo unspecified),1190
8,c1ccc2[nH]c(-c3ccc(-c4ccc(CNCCc5ccncc5)cc4)s3)nc2c1,158
9,O=C(Nc1cc(Cl)ccc1O)c1cc(-c2ccccc2O)no1,1090
10,CCc1cn2c3c(cc(C(=O)N[C@@H](Cc4ccccc4)[C@H](O)CN[C@@H](C)CC)cc13)N(C)S(=O)(=O)CC2,74.5
11,CCn1nc(C(=O)NC2CCOc3ccccc32)c2ccccc2c1=O (stereo unspecified),1230
12,NCCCNc1ccc(-c2ccc(NC(=O)Nc3cc(C(F)(F)F)ccc3F)cc2)cn1,837
13,COc1ccc(C2CCC(NCCCCNC(=O)c3ccc(NC(=O)c4ccc(Cl)cc4)cc3)CC2)cc1 (stereo unspecified),627
14,N#Cc1cc([N+](=O)[O-])ccc1-n1nc(-c2cccc(Cl)c2)n(CC2CCCO2)c1=S (stereo unspecified),914
15,COc1cc(NC(=O)N2CCOC(CCN3CCC(c4ccccc4)CC3)(c3ccc(Cl)c(Cl)c3)C2)cc(OC)c1OC (stereo unspecified),65.1
16,Cc1ccccc1C1CCN(C2CCC(NC(=O)/C=C/c3ccc(Cl)cc3)CC2)CC1 (stereo unspecified),805
17,CN1CCC(C(=O)N(Cc2ccc(-c3ccc(CNCCc4ccc(S(C)(=O)=O)cc4)cn3)cc2)Cc2ccc3c(c2)OCO3)CC1,1000
18,CN(C)CC1CCCN1Cc1ccccc1-c1cnn(C)c(=O)c1Oc1ccccc1F (stereo unspecified),1310
19,Cc1nnsc1C(=O)Nc1cccc(-c2cccc(-c3nc4ccccc4[nH]3)c2)c1,437
20,O=C(C=Cc1ccc(Cl)c(Cl)c1)NCCCCCN1CCC(CCCNC(=O)c2ccc3c(c2)OCO3)CC1,149
21,N#Cc1cccc(NC(=O)NC2CCN(CCCCCNC(=O)/C=C/c3ccc(Cl)c(Cl)c3)CC2)c1,707
22,COc1cc(NC(=O)c2cc3c(C)nn(-c4cccc(C(F)(F)F)c4)c3s2)cc(OC)c1OC,801
23,Cn1cccc1C(=O)NCC(CCNc1cc(=O)c2ccccc2[nH]1)NCc1cc(Br)cc(Br)c1 (stereo unspecified),911
24,CCOc1ccccc1CON1C(N)=NC(N)=NC1(C)C,3.71

row,SMILES,XC50 [nM]
1,C=C(C)CSc1nc2c(c(=O)n1Cc1ccco1)C1(CCCCC1)Cc1ccccc1-2,997
2,CCC(C)OC(=O)C1=C(C)NC2=C(C(=O)CC(c3ccc(OC)c(OC)c3)C2)C1c1ccc(C)o1 (stereo unspecified),899
3,CCCNCc1ccc(-c2ccc(CN(CCOC)C(=O)c3ccc([N+](=O)[O-])c(C)c3)cc2)nc1,868
4,N#Cc1ccc(NC(=O)Nc2ccc3c(c2)CCN(C2CCC2)CC3)cc1,628
5,COc1cc(F)c2ncc(Cl)c([C@@H](O)CN3CCC(NCc4ccc5c(n4)NC(=O)CO5)CC3)c2c1,124
6,CC(C)c1ccc2c(c1)C(=O)c1ccc(C(=O)O)cc1S2(=O)=O,472
7,O=C(/C=C/c1ccc(Cl)c(Cl)c1)N1CCC(CN2CCC(c3c[nH]c4ccc(O)cc34)CC2)CC1,776
8,Clc1cc2c(Nc3ccc(Oc4ccccc4)cc3)ccnc2cc1-c1ccc(CNCCN2CCOCC2)o1,707
9,Cc1ccc(Nc2nc(C)cc(N3CCN(c4ccccc4)CC3)n2)cc1,1530
10,COCCNc1nc(N2CCC(CNC(=O)c3ccc(-c4ccc(C(=O)N(C)C)cc4C)cc3)CC2)nc2cc(OC)c(OC)cc12,1020
11,CC(C)(CNC(=O)[C@@H]1CCCN(Cc2ccc(Cl)cc2)C1)c1nc(-c2ccc(Cl)c(O)c2)c(-c2ccncc2)[nH]1,941
12,O=C(Nc1ccc(Cl)cc1)Nc1cccc(-c2cc(CNCCc3ccccc3)oc2-c2ccncc2)c1,279
13,Cc1ccc(C(=O)N2CCc3cc4nccc(N5CCN6CCC[C@H]6C5)c4cc32)cc1,1100
14,Cn1nc(-c2ccc(CNC3CCc4ccccc43)cc2)c2cnc(NCCN3CCCC3)nc21 (stereo unspecified),1350
15,CC(CN1CCN(C)CC1)C(=O)Nc1cccc(-c2ccc(-c3nc4ccccc4[nH]3)cc2)c1 (stereo unspecified),943
16,O=C(Cc1ccc(-n2cnnn2)cc1)N(Cc1cncn1Cc1cccc(C(F)(F)F)c1)CC1CC1,962
17,COc1ccc(F)cc1-c1csc(N(c2ccc(F)cc2)C2CCNCC2)n1,1210
18,CCc1nc2c(N)nc(N)nc2nc1-c1ccc(OC)cc1,1200
19,O=C(CCc1c[nH]cn1)Nc1cccc(-c2ccc(-c3nc4ccccc4[nH]3)cc2)c1,651
20,NC(=O)c1cccc(Nc2nccc(Nc3ccc(Oc4ccc5ccccc5c4)cc3)n2)c1,810
21,O=C(c1cc(-c2ccccc2)n[nH]1)N1CCN(S(=O)(=O)c2ccc(Cl)s2)CC1,925
22,O=C(Nc1ccc(-c2ccc(-c3nc4ccccc4[nH]3)s2)cc1)Nc1ccsc1,279
23,C=CCn1c(Sc2ccc(C#N)c([N+](=O)[O-])c2)nnc1-c1cc(OC)cc(OC)c1,436
24,CCOc1cc(CC)ccc1C1CCN(CCCCNC(=O)c2ccc(NC(=O)c3ccc(C#N)cc3)cc2)CC1,504
